# Test results published in US12371454B2, “Cyclic peptide compound having Kras inhibitory action” (priority 2019, dated 2025).
# Starred links: 1 amine or outer side, 2 acyl side, 3 side chain; linkers in the order of their positions; H or OH if unused. Positions of bridges follow the written chain, without caps; N, C: chain ends. Non-standard residues stand in square brackets, D forms with d. Residues, ends and D or L forms follow the SMILES beside them. *: point of attachment. hPhe(3-Cl-4-CF3) = N[C@@H](CCc1ccc(C(F)(F)F)c(Cl)c1)C(=O)O; hPhe(3-F,4-CF3) = N[C@@H](CCc1ccc(C(F)(F)F)c(F)c1)C(=O)O; hPhe(4-CF3) = N[C@@H](CCc1ccc(C(F)(F)F)cc1)C(=O)O; NMePhe(4-Cl) = CN[C@@H](Cc1ccc(Cl)cc1)C(=O)O; NMedβ3hAla = C[C@H](CC(=O)[*:2])N(C)[*:1]; NMeGly(cPent) = CN[C@H](C(=O)O)C1CCCC1; Phe(3-I) = N[C@@H](Cc1cccc(I)c1)C(=O)O; Pro(4,4-F2) = O=C(O)[C@@H]1CC(F)(F)CN1; NMeY = CN[C@@H](Cc1ccc(O)cc1)C(=O)O; NMeCha = CN[C@@H](CC1CCCCC1)C(=O)O; NMeChg = CN[C@H](C(=O)O)C1CCCCC1; NMeD = CN[C@@H](CC(=O)O)C(=O)O; NMeL = CN[C@@H](CC(C)C)C(=O)O; NMeV = CN[C@H](C(=O)O)C(C)C; d(β3hA) = C[C@@H](N)CC(=O)O; NMeAbu = CC[C@H](NC)C(=O)O; NMeS = CN[C@@H](CO)C(=O)O; Iva = CC[C@](C)(N)C(=O)O; NMeA = CN[C@@H](C)C(=O)O; NMeAib = CNC(C)(C)C(=O)O; Piperidide = C1CCN(*)CC1; Pra = C#CC[C@H](N)C(=O)O; Pyrrolidide = C1CCN(*)C1; Ac5c = NC1(C(=O)O)CCCC1; Aze = O=C(O)[C@@H]1CCN1; X47 = Fc1cncc(C*)c1; CF3 = FC(F)(F)*; Sar = CNCC(=O)O
# Biological target: T1, Kras and SOS1 (biotin-tagged human Kras loaded with GDP, His-tagged human SOS1) (Homo sapiens, UniProt P01116, G12D)
# T1 construct: made in house; host or cells: E. coli (stated for Kras only)
# T1 sequence (P01116 1-188 isoform P01116-2 G12D): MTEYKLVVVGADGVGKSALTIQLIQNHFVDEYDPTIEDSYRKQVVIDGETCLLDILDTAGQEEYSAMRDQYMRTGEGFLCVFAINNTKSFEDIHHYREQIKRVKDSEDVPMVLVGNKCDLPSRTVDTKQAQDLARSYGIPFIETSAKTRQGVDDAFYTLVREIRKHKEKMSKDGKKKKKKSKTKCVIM
# Assay: Protein-protein interaction inhibition between Kras and SOS1 (KrasGl2D-SOS PPI) using AlphaScreen
# Type: binding
# Settings: AlphaScreen; biotin-tagged human Kras loaded with GDP, His-tagged human SOS1; read-out: KRAS G12D-SOS PPI IC50
# How it was run: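 Binding between SOS1 and Kras is detected as bead-proximity luminescence: illuminate Ni-conjugated donors (680 nm), collect 520-620 nm emission from streptavidin-conjugated acceptors; Kras carries biotin and GDP loaded after purification, SOS1 carries a His tag.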
row,Structure (SMILES),IC50 [nM]
1,C#CC[C@@H]1NC(=O)[C@H](Cc2cccc(I)c2)NC(=O)CN(C)C(=O)[C@H](Cc2ccc(OC(F)(F)F)cc2)N(C)C(=O)[C@@H]2CCN2C(=O)[C@H](C)N(C)C(=O)[C@H]([C@@H](C)CC)NC(=O)[C@H](CC(C)C)N(C)C(=O)C[C@@H](C(=O)N2CCCCC2)N(C)C(=O)[C@H](CC(C)C)NC(=O)C(C)(C)N(C)C1=O [Compound 1288] ([NMeL]I[NMeA][Aze][NMeY](CF3)[Sar][Phe(3-I)][Pra][NMeAib]L[NMeD]-Piperidide; lactam N-11),31
2,CC[C@H](C)[C@@H]1NC(=O)[C@H](C)N(C)C(=O)C[C@@H](C(=O)N2CCCC2)NC(=O)[C@H](CC(C)C)N(C)C(=O)[C@H](COCc2cncc(F)c2)N(C)C(=O)[C@H](CC(C)C)NC(=O)[C@H](CCc2ccc(C(F)(F)F)cc2)NC(=O)CN(C)C(=O)[C@H](Cc2ccc(Cl)cc2)N(C)C(=O)CN(C)C(=O)CN(C)C1=O [Compound 517] ([NMeA]I[Sar][Sar][NMePhe(4-Cl)][Sar][hPhe(4-CF3)]L[NMeS](X47)[NMeL]D-Pyrrolidide; lactam N-11),28
3,"CC[C@H](C)[C@@H]1NC(=O)[C@H](CC(C)C)N(C)C(=O)C[C@@H](C(=O)N2CCCC2)NC(=O)[C@H](CC(C)C)NC(=O)C(C)(C)N(C)C(=O)[C@H](CC(C)C)NC(=O)[C@H](CCc2ccc(C(F)(F)F)c(F)c2)NC(=O)CN(C)C(=O)[C@H](Cc2ccc(Cl)cc2)N(C)C(=O)CN(C)C(=O)CN(C)C1=O [Compound 96] ([NMeL]I[Sar][Sar][NMePhe(4-Cl)][Sar][hPhe(3-F,4-CF3)]L[NMeAib]LD-Pyrrolidide; lactam N-11)",220
4,"CC[C@H](C)[C@@H]1NC(=O)[C@H](CC(C)C)N(C)C(=O)C[C@@H](C(=O)N2CCCC2)NC(=O)[C@H](CC(C)C)N(C)C(=O)C2(CCCC2)NC(=O)[C@@H]2CCCN2C(=O)[C@H](CCc2ccc(C(F)(F)F)c(F)c2)NC(=O)CN(C)C(=O)[C@H](CC2CCCCC2)N(C)C(=O)CN(C)C(=O)CN(C)C1=O [Compound 1489] ([NMeL]I[Sar][Sar][NMeCha][Sar][hPhe(3-F,4-CF3)]P[Ac5c][NMeL]D-Pyrrolidide; lactam N-11)",18
5,"CC[C@H](C)[C@@H]1NC(=O)[C@H](CC(C)C)N(C)C(=O)C[C@@H](C)NC(=O)[C@H](CC)N(C)C(=O)C2(CCCC2)NC(=O)[C@@H]2CCCN2C(=O)[C@H](CCc2ccc(C(F)(F)F)c(F)c2)NC(=O)CN(C)C(=O)[C@H](CC2CCCCC2)N(C)C(=O)CN(C)C(=O)CN(C)C1=O [Compound 1469] (cyclo([Ac5c][NMeAbu][d(β3hA)][NMeL]I[Sar][Sar][NMeCha][Sar][hPhe(3-F,4-CF3)]P))",230
6,CC[C@H](C)[C@@H]1NC(=O)[C@H](CC(C)C)N(C)C(=O)C[C@@H](C(=O)N2CCCCC2)N(C)C(=O)[C@H](C(C)C)N(C)C(=O)[C@](C)(CC)NC(=O)[C@@H]2CCCN2C(=O)[C@H](CCc2ccc(C(F)(F)F)c(Cl)c2)NC(=O)CN(C)C(=O)[C@H](CC2CCCCC2)N(C)C(=O)[C@@H]2CCN2C(=O)[C@H](C)N(C)C1=O [Compound 394] ([NMeL]I[NMeA][Aze][NMeCha][Sar][hPhe(3-Cl-4-CF3)]P[Iva][NMeV][NMeD]-Piperidide; lactam N-11),13
7,CC(C)C[C@H]1C(=O)N[C@@H](C)C(=O)N(C)CC(=O)N(C)CC(=O)N(C)[C@@H](CC2CCCCC2)C(=O)N(C)CC(=O)N[C@@H](CCc2ccc(C(F)(F)F)c(Cl)c2)C(=O)N2CCC[C@H]2C(=O)NC2(CCCC2)C(=O)N(C)[C@@H](C2CCCCC2)C(=O)N(C)[C@H](C(=O)N2CCCCC2)CC(=O)N1C [Compound 1802] ([NMeL]A[Sar][Sar][NMeCha][Sar][hPhe(3-Cl-4-CF3)]P[Ac5c][NMeChg][NMeD]-Piperidide; lactam N-11),21
8,"CC[C@H](C)[C@@H]1NC(=O)[C@H](CC(C)C)N(C)C(=O)C[C@@H](C)N(C)C(=O)[C@H](C2CCCC2)N(C)C(=O)C2(CCCC2)NC(=O)[C@@H]2CC(F)(F)CN2C(=O)[C@H](CCc2ccc(C(F)(F)F)c(Cl)c2)NC(=O)CN(C)C(=O)[C@H](CC2CCCCC2)N(C)C(=O)CN(C)C(=O)CN(C)C1=O [Compound 107] (cyclo([Ac5c][NMeGly(cPent)][NMedβ3hAla][NMeL]I[Sar][Sar][NMeCha][Sar][hPhe(3-Cl-4-CF3)][Pro(4,4-F2)]))",4
